Source: PubChem BioAssay AID330 (DTP/NCI, 2004)
Values joined by “and” are separate entries in the source; they are usually repeats but may differ in a detail not shown here. Equal entries are not always repeated. Inconclusive results and toxic doses are left out. The calls were made as follows: active = survival T/C of 150% or more; inactive = T/C below 125% in these data. Peptide text beside a SMILES is read from it. * marks the point of attachment. CH2Cl = ClC*

Test system: P388 leukemia ip, CD2F1 mice, survival T/C
Experiment: NCI In Vivo Anticancer Drug Screen. Data for tumor model P388 Leukemia (intraperitoneal) in CD2F1 (CDF1) mice
Conditions: endpoint: median survival time, higher = longer survival
In short: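 Mice carrying the transplanted tumor received test compound or vehicle. Survival was recorded in each group, and the value is the treated-group measurement divided by that of the vehicle-treated control group.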

[1] = dose: 100.0 mg/kg/injection, schedule: Q04DX002 (ip), vehicle: saline with Tween-80
[2] = dose: 200.0 mg/kg/injection, schedule: Q04DX002 (ip), vehicle: saline with Tween-80
[3] = dose: 50.0 mg/kg/injection, schedule: Q01DX009 (ip), vehicle: saline with Tween-80
[4] = dose: 100.0 mg/kg/injection, schedule: Q01DX009 (ip), vehicle: saline with Tween-80
[5] = dose: 200.0 mg/kg/injection, schedule: Q01DX009 (ip), vehicle: saline with Tween-80
[6] = dose: 50.0 mg/kg/injection, schedule: Q01DX005 (ip), vehicle: saline with Tween-80
[7] = dose: 100.0 mg/kg/injection, schedule: Q01DX005 (ip), vehicle: saline with Tween-80
[8] = dose: 200.0 mg/kg/injection, schedule: Q01DX005 (ip), vehicle: saline with Tween-80
[9] = dose: 25.0 mg/kg/injection, schedule: Q01DX009 (ip), vehicle: saline with Tween-80
[10] = dose: 25.0 mg/kg/injection, schedule: Q04DX003 (ip), vehicle: saline with Tween-80
[11] = dose: 50.0 mg/kg/injection, schedule: Q04DX003 (ip), vehicle: saline with Tween-80
[12] = dose: 12.5 mg/kg/injection, schedule: Q04DX003 (ip), vehicle: saline with Tween-80
[13] = dose: 50.0 mg/kg/injection, schedule: Q01DX009 (ip), vehicle: Klucel (hydroxypropylcellulose) (HPC)
[14] = dose: 100.0 mg/kg/injection, schedule: Q01DX009 (ip), vehicle: Klucel (hydroxypropylcellulose) (HPC)
[15] = dose: 200.0 mg/kg/injection, schedule: Q01DX009 (ip), vehicle: Klucel (hydroxypropylcellulose) (HPC)

Measured: T/C

CCN(C)c1nc(N(C)C)nc(N(C)C)n1
inactive: dose: 50.0 mg/kg/injection, schedule: Q04DX002 (ip), vehicle: saline with Tween-80 100 % of control | dose: 50.0 mg/kg/injection, schedule: Q04DX002 (ip), vehicle: saline 109 % of control | [1] 107 % of control | dose: 100.0 mg/kg/injection, schedule: Q04DX002 (ip), vehicle: saline 110 % of control | [2] 100 % of control | dose: 200.0 mg/kg/injection, schedule: Q04DX002 (ip), vehicle: saline 109 % of control

COC(=O)c1ccc(C)[n+](C2OC(COC(=O)c3ccccc3)C(OC(=O)c3ccccc3)C2OC(=O)c2ccccc2)c1 (stereo not given)
inactive: dose: 50.0 mg/kg/injection, schedule: Q01DX005 (ip), vehicle: saline + Tween-80 + alcohol 100 % of control | dose: 100.0 mg/kg/injection, schedule: Q01DX005 (ip), vehicle: saline + Tween-80 + alcohol 100 % of control | dose: 200.0 mg/kg/injection, schedule: Q01DX005 (ip), vehicle: saline + Tween-80 + alcohol 98 % of control

C=CC#N
inactive: [3] 99 % of control | [4] 95 % of control | [5] 90 % of control

N#CC1Sc2ccccc2N1C(=O)c1ccccc1 (stereo not given)
inactive: [6] 103 % of control | [7] 100 % of control | [8] 98 % of control

NC(=O)NN(Cc1cccc(Cl)c1)N=O
inactive: dose: 100.0 mg/kg/injection, schedule: Q04DX003 (ip), vehicle: Klucel (hydroxypropylcellulose) (HPC) 95 % of control | dose: 200.0 mg/kg/injection, schedule: Q04DX003 (ip), vehicle: Klucel (hydroxypropylcellulose) (HPC) 94 % of control | dose: 400.0 mg/kg/injection, schedule: Q04DX003 (ip), vehicle: Klucel (hydroxypropylcellulose) (HPC) 98 % of control

CC1(c2ccc(-c3ccccc3)cc2)NC(=O)NC1=O (stereo not given)
inactive: [9] 91 % of control | [3] 86 % of control | [4] 91 % of control

COc1ccccc1-n1c(Cc2cccc3ccccc23)nnc1SCC(=O)O
inactive: dose: 50.0 mg/kg/injection, schedule: Q01DX005 (ip), vehicle: Klucel (hydroxypropylcellulose) (HPC) 100 % of control | dose: 100.0 mg/kg/injection, schedule: Q01DX005 (ip), vehicle: Klucel (hydroxypropylcellulose) (HPC) 100 % of control | dose: 200.0 mg/kg/injection, schedule: Q01DX005 (ip), vehicle: Klucel (hydroxypropylcellulose) (HPC) 100 % of control

O=C1C(Cl)=C(Sc2nc3ccccc3s2)C(=O)c2ccccc21
inactive: dose: 12.5 mg/kg/injection, schedule: Q01DX005 (ip), vehicle: saline with Tween-80 100 % of control | dose: 25.0 mg/kg/injection, schedule: Q01DX005 (ip), vehicle: saline with Tween-80 100 % of control

O=[N+]([O-])c1cc(Br)c2c(c1)CCN2
inactive: dose: 25.0 mg/kg/injection, schedule: Q01DX009 (ip), vehicle: distilled water + Tween-80 98 % of control | dose: 50.0 mg/kg/injection, schedule: Q01DX009 (ip), vehicle: distilled water + Tween-80 100 % of control | dose: 100.0 mg/kg/injection, schedule: Q01DX009 (ip), vehicle: distilled water + Tween-80 97 % of control | dose: 200.0 mg/kg/injection, schedule: Q01DX009 (ip), vehicle: distilled water + Tween-80 103 % of control | dose: 400.0 mg/kg/injection, schedule: Q01DX009 (ip), vehicle: distilled water + Tween-80 116 % of control

CC1(C)CC(=O)C2(OC3=C([Se]2)C(=O)CC(C)(C)C3)C(=O)C1
inactive: [3] 110 % of control | [4] 107 % of control | [5] 107 % of control

c1cc2c3c(c1)nc(CCCc1nc4cccc5c4n1CCC5)n3CCC2
inactive: [10] 95 % of control | [11] 86 % of control | dose: 100.0 mg/kg/injection, schedule: Q04DX003 (ip), vehicle: saline with Tween-80 90 % of control

CCOc1c(N=Nc2ccc(Cl)cc2)c(-c2ccccc2)nn1C(=S)S
inactive: [6] 97 % of control | [7] 99 % of control | [8] 91 % of control

Cc1cc[n+](CCc2c[nH]c3ccccc23)cc1C
inactive: dose: 12.5 mg/kg/injection, schedule: Q01DX005 (ip), vehicle: saline 100 % of control | dose: 25.0 mg/kg/injection, schedule: Q01DX005 (ip), vehicle: saline 97 % of control | dose: 50.0 mg/kg/injection, schedule: Q01DX005 (ip), vehicle: saline 105 % of control and 95 % of control

NC(=O)CCSC1=CC(=O)c2ccccc2C1=O
inactive: dose: 3.13 mg/kg/injection, schedule: Q04DX003 (ip), vehicle: saline with Tween-80 103 % of control | dose: 6.25 mg/kg/injection, schedule: Q04DX003 (ip), vehicle: saline with Tween-80 110 % of control | [12] 103 % of control and 110 % of control

CCC1NC(C)(C)CC1=C(C)C (stereo not given)
inactive: dose: 6.25 mg/kg/injection, schedule: Q04DX003 (ip), vehicle: saline 105 % of control | dose: 12.5 mg/kg/injection, schedule: Q04DX003 (ip), vehicle: saline 110 % of control | dose: 25.0 mg/kg/injection, schedule: Q04DX003 (ip), vehicle: saline 110 % of control

Nc1nc2c(c(=O)[nH]1)NC(CCNc1ccc(C(=O)O)cc1)CN2 (stereo not given)
inactive: dose: 12.5 mg/kg/injection, schedule: Q01DX009 (ip), vehicle: saline with Tween-80 104 % of control | [12] 90 % of control | [9] 113 % of control | [10] 95 % of control | [11] 113 % of control

CCCCCCOC(CN(C)C)C(Cl)(Cl)Cl (stereo not given)
inactive: dose: 50.0 mg/kg/injection, schedule: Q01DX009 (ip), vehicle: suspension in saline 97 % of control | dose: 100.0 mg/kg/injection, schedule: Q01DX009 (ip), vehicle: suspension in saline 96 % of control | dose: 400.0 mg/kg/injection, schedule: Q01DX009 (ip), vehicle: suspension in saline 124 % of control

CC(=O)Oc1cc2c(c(OC(C)=O)n1)C(C)N(Cc1ccccc1)C2=O (stereo not given)
inactive: [13] 106 % of control | [14] 106 % of control | [15] 115 % of control

COc1ccc(OC)c(C=C(C(C)=O)C(C)=O)c1
inactive: dose: 25.0 mg/kg/injection, schedule: Q01DX009 (ip), vehicle: other 111 % of control | dose: 50.0 mg/kg/injection, schedule: Q01DX009 (ip), vehicle: other 105 % of control | dose: 100.0 mg/kg/injection, schedule: Q01DX009 (ip), vehicle: other 109 % of control | dose: 200.0 mg/kg/injection, schedule: Q01DX009 (ip), vehicle: other 108 % of control | dose: 400.0 mg/kg/injection, schedule: Q01DX009 (ip), vehicle: other 115 % of control

CCN(CC)c1nc(NNC(=S)NC)nc(N(CC)CC)n1
inactive: [1] 100 % of control | [2] 98 % of control | dose: 400.0 mg/kg/injection, schedule: Q04DX002 (ip), vehicle: saline with Tween-80 100 % of control

CCCCNC1=CC(=S)NC(C)(C)C1
inactive: [13] 104 % of control | [14] 86 % of control | [15] 104 % of control

CC(=O)NC(CC(C)C)C(=O)NC(Cc1ccccc1)C(=O)CCl (stereo not drawn) (Ac-Leu-Phe-CH2Cl; configuration not given here)
inactive: dose: 3.12 mg/kg/injection, schedule: Q01DX009 (ip), vehicle: Klucel (hydroxypropylcellulose) (HPC) 103 % of control | dose: 6.25 mg/kg/injection, schedule: Q01DX009 (ip), vehicle: Klucel (hydroxypropylcellulose) (HPC) 113 % of control | dose: 12.5 mg/kg/injection, schedule: Q01DX009 (ip), vehicle: Klucel (hydroxypropylcellulose) (HPC) 120 % of control | dose: 25.0 mg/kg/injection, schedule: Q01DX009 (ip), vehicle: Klucel (hydroxypropylcellulose) (HPC) 116 % of control
